Assay results as given in ChEMBL document CHEMBL3507680, “University of Dundee, Gates Library screen for HepG2 cell viability”.

Assay: Human HepG2 cell viability assay in 384 well format
Assay type: toxicity, cell-based
Design: dose 125 nL, time 70.5 hour; concentration not given beside the values
Conditions: HepG2 cells, read-out: Inhibition

SMILES | cytotoxicity at 70.5 h [%]
CC(=O)N1CCC(c2ncc(C(=O)Nc3ccccc3)c(C)n2)CC1 | -4.36
CC(C)N1CCOCC2(CCN(c3cnccn3)CC2)C1 | -11.1
CCN(Cc1ccncc1)C1CCN(c2ccccc2)C1=O (stereo not drawn) | 1.49
CCc1nc(CN(C)C2CCN(CC(=O)N(C)C)C2)no1 (stereo not drawn) | -5.61
Fc1ccc(CN2CCOC[C@H](Oc3cccnc3)C2)cc1 | 10.5
CCOc1cccc(C(=O)NCCC(=O)NCc2ccncc2)c1 | 23
Cn1cc(Cl)c(C(=O)N2CCC(N3CCc4ccccc4C3)CC2)n1 | -6.46
CCCN(CC)C(=O)c1nc2c(n1C)CCN(Cc1ccccc1)C2 | -4.66
CC(=O)N1CCCC(c2nccnc2-c2ccc(CO)cc2)C1 (stereo not drawn) | -5.35
CN(C)c1ccc2c(c1)CN(C(=O)c1ccnnc1)C2c1cnco1 (stereo not drawn) | -13.8
CCn1cc(CN2CCCCC2CCn2ccnc2C)cc1C#N (stereo not drawn) | -6.87
c1cc(C2CN(C3CCCC3)C2)n[nH]1 | -1.02
COCCNc1ncc(-c2cc(C)no2)c(-c2ccco2)n1 | 8.77
CCOCc1nn(CC2CC2)c2c1CN(Cc1ccco1)CC2 | -6.88
Cc1cc(SCC(N)=O)nc(-c2ccc(F)cc2)n1 | -9.61
COCCn1c(C(=O)NCC(C)C(=O)O)cc2ccccc21 (stereo not drawn) | 0.983
CS(=O)(=O)N1C[C@@H]2CC[C@H](C1)N(Cc1ccsc1)C2 | 34.2
Cc1cnc(C(=O)NC(CN2CCCC2=O)c2ccccc2)cn1 (stereo not drawn) | -1.21
COC[C@@H]1CCC[C@@]12CN(C(=O)N1CCCC1)CCO2 | -12.3
CN1CCOC[C@H]1c1nc(-c2ccccc2)c[nH]1 | -9.46
CCCc1cc(C(=O)NCCCn2nnc3ccccc32)no1 | -6.64
Cc1ccc(CN(C)Cc2ncc(C(C)(C)C)o2)o1 | 0.445
CCc1nc(CN(C(C)=O)C2CCN(Cc3cnc(C)cn3)C2)no1 (stereo not drawn) | 23.6

SMILES | cytotoxicity at 70.5 h [%]
CO[C@H]1[C@@H]2CC[C@H]1CN(c1nc(C)nc3ccsc13)C2 | 19.4
Cc1cccc(CN2C(=O)CC[C@@H]3[C@H]2CCN3Cc2nccn2C)n1 | -9.05
CCN(Cc1ccc2c(c1)OCO2)Cc1nc2c(cnn2C)c(=O)[nH]1 | 7.27
Cc1cc(C)c2c(N3CCN(CCN4CCOCC4)CC3)ncnc2n1 | 16.3
O=C(NCc1ccccn1)N(Cc1ccc(F)cc1F)C1CC1 | -17.3
c1ccc(CN2CCN(Cc3cnc(C4CCCCO4)nc3)CC2)cc1 (stereo not drawn) | 1.9
Cc1cc(C(F)(F)F)cc(N2C[C@@H](CN3CCOCC3)[C@@H](CO)C2)n1 | -16.2
CN(C)C(=O)[C@@H]1CCO[C@@H]2CCN(Cc3ccccc3)C[C@@H]21 | -3.08
Cc1ccc(C2CCCN2S(=O)(=O)N(C)CCc2ccccn2)o1 (stereo not drawn) | 4.42
Fc1ccc(CN2C[C@@H]3OCCN(CCN4CCCC4)[C@@H]3C2)cc1 | -6.53
Cn1cc(NC(=O)N2CCC(Cc3ccccc3)CC2)ccc1=O | -2.61
CN(C)CCN(C)c1ccc(-c2nc(COc3ccccc3)no2)cn1 | 6.86
Cc1cc(NC(=O)NCc2ccc(S(=O)(=O)N3CCCC3)s2)no1 | -7.64
Cc1ccnc(NCc2cn3c(C)csc3n2)n1 | -11.5
CC(=O)N1CCCN(C(=O)NC(C)Cn2cccn2)CC1 (stereo not drawn) | -3.94
Cc1ccc(-c2nc(CNCCn3cccn3)cs2)o1 | -7.84
COCCCn1ccc(NC(=O)NCCCNc2ccccc2)n1 | -3.49
COc1ccccc1OCC(=O)NS(=O)(=O)c1ccccc1F | -0.501
CCCS(=O)(=O)N1CC(=O)N(Cc2ccccc2OC)CC(O)C1 (stereo not drawn) | 18.5
CN1CCC2(CC1)Cc1ccccc1CN(C(=O)CN)C2 | 24.5
COCC1CN(Cc2sccc2C)Cc2nnn(CC3CC3)c21 (stereo not drawn) | -4.06
CC(C)c1cc(C(=O)NCCc2nc(-c3ccncc3)n[nH]2)[nH]n1 | -5.69
CCc1nnc(CS(=O)(=O)c2ccc(C)c(C)c2)n1C | 26.2

SMILES | cytotoxicity at 70.5 h [%]
N#Cc1c(F)cccc1Nc1cnn(CC(=O)N2CCOCC2)c1 | 39.8
O=C(CNC1(c2ccc(Cl)cc2)CCOCC1)NC1CCCC1 | 1.78
CC(C)n1cc(CN2CCCN(C(=O)c3cc(Cl)c[nH]3)CC2)cn1 | 1.03
CC1CN(S(=O)(=O)c2ccc(F)cc2)c2cccnc2O1 (stereo not drawn) | 1.22
NCC1(c2cccc(C(F)(F)F)c2)CCOCC1 | -3.44
COc1ccccc1C(=O)C1CCCN(c2cc(C#N)ccn2)C1 (stereo not drawn) | -1.63
Cc1ccc(-c2noc(CNCC3CN(C)CCO3)n2)cc1F (stereo not drawn) | -5.24
CNC(=O)CC1CCN(C(=O)NCC2(c3ccccc3F)CC2)CC1 | -3.18
Cc1noc([C@H]2CC[C@@H]3[C@@H](CCN3S(C)(=O)=O)O2)n1 | 1.24
Cn1cc(CC(=O)N2CCC(Nc3cccnn3)CC2)c2ccccc21 | -4.98
OC1CCN(Cc2ccc(CNc3ccc(Cl)cn3)cc2)CC1 | -0.577
CSCC(=O)N1CCCC(CCC(=O)N(C)CCc2ccccn2)C1 (stereo not drawn) | 9.62
COCCN1CCN(CC2CCCCO2)CC1 (stereo not drawn) | 38.7
N#CCC(=O)NCc1nnc2n1CCN(Cc1ccsc1)C2 | 9.84
CS(=O)(=O)CCCOc1cccc(-n2cccn2)c1 | 12.8
CNc1cc(C)nc(N2CCC3(CC2)[C@H](O)C[C@@H]3OCCO)n1 | -4.12
CCOC(=O)N1CCC(C(=O)c2cc(F)ccc2F)CC1 | -8.51
CCc1nc(C2CCCN2C(=O)c2cc(C3CC3)[nH]n2)no1 (stereo not drawn) | -1.42
COCCN1C[C@H]2CCN(C(=O)c3cc(C)on3)CC[C@H]2S1(=O)=O | -5.47
Cn1cc(C2CCCN2CCCc2nc(-c3cccs3)no2)cn1 (stereo not drawn) | -11.4
CC(C)C(=O)N1CCC(CNc2nc(C(C)C)nc3c2cnn3C)CC1 | -9.27
COc1c(C2CCCN2C(=O)c2ccc(C(N)=O)s2)c(C)nn1C (stereo not drawn) | -7.38
O=C(C1CC1)N(CCc1ccccc1)C1CCOC1 (stereo not drawn) | -6.28

SMILES | cytotoxicity at 70.5 h [%]
CN(C)Cc1ccnc(C2CN(Cc3nccs3)CCO2)n1 (stereo not drawn) | 1.69
CC(=O)Nc1nc(C(=O)N2CCCC2c2ccccc2C)cs1 (stereo not drawn) | -19.1
OCCCNC1CCc2cc3c(cc21)OCCO3 (stereo not drawn) | -4.1
Cc1cc(C(=O)N2CCc3c(nc(-c4ccncc4)[nH]c3=O)C2)no1 | 2.99
CN(Cc1ccco1)[C@@H]1CN(Cc2cccs2)C[C@@H]2CCCO[C@@H]21 | -6.25
COCCn1cc(NC(=O)NCC2CCN(c3ccccc3)C2)cn1 (stereo not drawn) | -3.34
CCN(C(=O)c1cccc2c1OCO2)c1ccccc1 | -4.98
O=S(=O)(Nc1cnn(C2CCOCC2)c1)c1c(F)cccc1F | -1.01
CSc1nccc(N2CCN(C)C3(CCNC(=O)CC3)C2)n1 (stereo not drawn) | -5.4
CCNC(=O)C1CCN(Cc2ccc(C(=O)Nc3cnns3)cc2)C1 (stereo not drawn) | 1.67
COCCn1ccnc1C1CCCN(C(=O)c2cc(F)cc(F)c2)C1 (stereo not drawn) | -3.01
CC(C)(C)OC(=O)N1CCC(NC2CC2)CC1 | -7.1
CC(C)CCN1CCN(c2ncnc3nc(N)ccc23)CC1 | -2.35
CCn1c(CN(C)C)nnc1C1CCN(c2ccnc(C)c2)CC1 | -3.44
c1cn(-c2ccc(CN3CCCC3)cc2)c(-c2cc3n(n2)CCNC3)n1 | -6.8
O=C(C1CC1)N1CC[C@H](O)[C@@H]1Cc1ccccc1 | -3.79
COc1cccc(CN2CCCC2c2cncc(Nc3nncs3)n2)c1 (stereo not drawn) | 12.9
CC(C)N1CCCC(N2CCOC3(CCCC3)C2)C1=O (stereo not drawn) | -7.02
CC(C(=O)NCc1ccc2c(c1)OCCO2)n1cncn1 (stereo not drawn) | 31.8
O=C(c1cncc(N2CCCC3(CCNCC3)CC2)n1)N1CCCCC1 | 8.06
Cc1ccc(C(=O)NS(=O)(=O)c2cc(F)ccc2F)c(=O)[nH]1 | -13.1
CCN1CC(COc2ccc(OC)cc2)Oc2ccncc2S1(=O)=O (stereo not drawn) | -0.442
CCC(=O)NC(c1ccc(C)cc1)c1cccc(S(C)(=O)=O)c1 (stereo not drawn) | -11.9

SMILES | cytotoxicity at 70.5 h [%]
Cn1cnnc1SCCCNC(=O)Nc1ncccn1 | -2.46
CN(C)CC(=O)N1CCc2sc(C(=O)N3CCOCC3)cc21 | -0.909
CC(C)[C@H](NC(=O)NC1CCS(=O)(=O)C1)C(=O)Nc1cccnc1 (stereo partly drawn) | 9.45
Cc1nc(N2CCC3(CCCNC3=O)C2)nc2c1CCCC2 (stereo not drawn) | -3.11
c1ccc2nc(N3CCOC(Cn4cccn4)C3)cnc2c1 (stereo not drawn) | -11.7
COCC1c2nnn(CC3CC3)c2CCN1C(=O)Cc1cccs1 (stereo not drawn) | -8.15
Cc1cnn(C2CCCN(C(=O)c3ccc(-n4cnnn4)cc3)C2)c1 (stereo not drawn) | 0.981
Cc1nc(CN2CCC(CNC(=O)C3CCOC3)CC2)oc1C (stereo not drawn) | 16.3
Cc1ccc([C@@H]2CN(C(=O)c3cccnn3)C[C@H]2NC(=O)C2CC2)cc1 | -8.66
CC(C)Cc1ccc(C(=O)Cn2cnnc2[S+](C)[O-])cc1 (stereo not drawn) | -3.94
O=C(N[C@@H]1CC[C@@H](N2CCCC2)[C@@H]1O)c1cc2ccccc2[nH]1 | -5.76
NC(=O)CNC(=O)c1ccc(CNCc2ccc(Cl)cc2Cl)cc1 | -28
COc1ccc(C2(C(=O)N3CC(c4cccnc4)C3)CC2(C)C)cc1 (stereo not drawn) | -0.294
Cc1cc(N2CCc3c(ncn3C)C2)n2nc(C(F)(F)F)nc2n1 | -105
CC(C)C(=O)N1CCN(Cc2cc(-c3ccncc3)nn2C)CC1 | 31.9
Cc1cnccc1N1CCCN(C(=O)CCCn2ccnc2C)CC1 | -6.13
CCCc1cncnc1N1CCC(NCCc2nc(O)cc(O)n2)CC1 | -7.02
O=C(Cn1nnc(-c2ccc(F)cc2)n1)N1CCOCC(O)C1 (stereo not drawn) | -1.8
c1nnc(Nc2cncc(C3CCCN3CC3CC3)n2)s1 (stereo not drawn) | 0.394
O=C(c1c[nH]cn1)N1CCC(n2cc(-c3ccsc3)nn2)CC1 | 18
COCc1cc(CN(C)C(=O)CCC(=O)Nc2cc(C)ccc2F)n[nH]1 | -6.52
